Test results published in patent US5670538A, “Use of prodelphinidins for obtaining medicaments intended for the treatment of arthrosis” (Laboratoires Dolisos, priority 1992, dated 1997).
Read-outs that look alike come from different tables or passages of the source.

Experiments:
[1] = test system: human articular chondrocytes; assay: Radioimmunoassay of cartilaginous proteoglycans (PG) produced in tridimensional culture of human chondrocytes; format: cell-based; settings: for PG in the clusters over 12 days: 0-12 days
Text: The model used for testing the proanthocyanidols, namely the tridimensional culture of human chondrocytes allows chondrorepair to be quantified by the production of matrix substances: type II collagen, proteoglycans, and chondroresorption by the reduction in the levels of prostaglandin E2 and of OH° and O°2 type free radicals produced.
1. Tridimensional culture of human chondrocytes
The technique used has been described in detail (Bassleer et al., 1986).
Briefly, human articular chondrocytes are cultivated in DMEM (Dulbecco's Modification of Eagle's Medium--ICN--Gand, Belgium) with either Ultroser G 1% (GIBCO, Gand, Belgium) or 10% of foetal calf serum (ICN--Gand--Belgium), and 50 μg of ascorbic acid/ml added to it. The cartilage originates from the apparently normal zone of heads of human femur suffering from arthrosis, immediately after an operation carried out to insert a total hip prosthesis; it can also originate from the head of a healthy femur, but which has undergone a traumatism and has had to be replaced. This cartilage is then digested by clostridial collagenase 1 mg/ml (Boehringer-Mannheim, Germany) in a buffer (NaCl 120 mM, CaCl2 1 mM, KCl 5 mM, KH2 PO4 1 mM, NaHCO3 25 mM, glucose 2 mM and Hepes 30 mM, pH 7.4) for 24 hours. After 6 successive washings and centrifugations, the chondrocytes, isolated from their matrix, are cultured in flasks (10^6 cells/2 ml of culture medium) placed on a gyrator (10 rpm). The cultures are kept at 37° C. in an atmosphere of air 95%-CO2 5% (Bassleer et al., 1986). Cultivated under these conditions, after 4 to 5 days the chondrocytes form a tridimensional cluster in each flask. These clusters, which at first have a flocculent appearance, then tend to condense during the culture. After two weeks, their diameter is, in general, from 1 to 2 mm.
The fresh weight of the clusters increases with the duration of the culture, above all during the few first days.
2. Radioimmunoassay of cartilaginous proteoglycans (PG)
The PGs are measured with a radioimmunoassay (RIA) which is specific and sensitive to human cartilaginous PGs (Gysen et al. 1984). The PGs were extracted from human cartilage, according to the methods described by Roughley et al., (1981) and by Bayliss and Venn (1980). The antiserum against the cartilaginous PGs was obtained from the rabbit according to the technique of Vaitukaitis et al. (1971). The radioimmunoassay is carried out in a 0.4 ml volume consisting of 0.1 ml of tracer solution (15000 to 20000 cpm ^125 I-PG, labelled by the chloramine T method (Greenwood, 1973). 0.1 ml of anti-PG antiserum diluted to 1/5000 in phosphate-buffered saline (PBS-50 mM PO4, 150 mM NaCl ), containing BSA (5 g/l bovine serum albumin and 6.7 mM sodium azide) (incubation buffer) and 0.2 ml of several dilutions of the culture medium or of the cluster extract or also of the antigen (0.5 -500 ng/tube).
After four days at 4° C., the free PGs* (radioactive PGs) are separated from the PG*-antibody complexes by double precipitation (Franchimont et al., 1983).
The sensitivity of the assay is 0.6 ng/tube. The accuracy of measurement is of the order of 4%. The coefficients of the intra- and inter assay variation are less than 10% and 20% respectively.
The antibodies are directed against the antigenic determinants of the central protein of PG. There is a complete crossed reaction with human PGs of cartilage from the ribs, vertebral disks and trachea, even with PGs extracted from veins or arteries. There is no cross reaction with glycosaminoglycans or with PGs extracted from foetal tissues or the small PGs from bone.
The PGs are measured directly in the culture medium. As for the chondrocyte clusters, they are washed 3 times in a phosphate-buffered saline (PBS-50 mM PO4, 150 mM NaCl pH 7.4) containing protease inhibitors (Oegema et al., 1975:100 mM 6-aminohexanoic acid, 10 mM EDTA, 50 mM benzamidine hydrochloride, 5.10^-8 M trypsin inhibitor, 6.7 mM sodium azide and 200 U/ml superoxide dismutase). […]

[2] = Production of OH° hydroxyl radicals (gamma irradiation, KMB substrate, ethylene by gas chromatography); format: biochemical; settings: for % inhibition of the production of hydroxyl radicals: Substrate: KMB, relative to the controls
Description: 8. Production of OH° hydroxyl radicals
The products are dissolved in 10 ml flasks at the required concentration in phosphate buffer: 6.6.10^-2 M, pH 7.4 in the presence of alpha keto methiolbutyric acid (10^-3 M: KMB). After the flasks have been hermetically sealed, the samples are irradiated with gamma rays provided by a ^137 Cs source.
The OH° radicals produced by the gamma radiation react with the KMB to produce the ethylene detected by a gas chromatograph. The height of the ethylene peak is proportional to the quantity of free radicals formed in the medium (Weis et al., 1978).

## Oc1cc(O)c2c(c1)O[C@H](c1cc(O)c(O)c(O)c1)[C@@H](O)[C@@H]2c1c(O)cc(O)c2c1O[C@H](c1cc(O)c(O)c(O)c1)[C@H](O)C2 [Substance Ia, GC-(4 alpha→8) EGC]
[1]; 1% Ultroser G, 1 μg/ml
  PG in the clusters over 12 days: 912 ± 83.6 ng/μg DNA
[1]; 1% Ultroser G, 10 μg/ml
  PG in the clusters over 12 days: 1411 ± 153 ng/μg DNA
[1]; 1% Ultroser G, 100 μg/ml
  PG in the clusters over 12 days: 2105 ± 42 ng/μg DNA
[1]; 1% Ultroser G, culture time 0-4 days, 1 μg/ml
  PGs released in the culture medium: 14.2 ± 1.6 μg/μg DNA/96 h
[1]; 1% Ultroser G, culture time 0-4 days, 10 μg/ml
  PGs released in the culture medium: 22.4 ± 0.2 μg/μg DNA/96 h
[1]; 1% Ultroser G, culture time 0-4 days, 100 μg/ml
  PGs released in the culture medium: 28.6 ± 2.85 μg/μg DNA/96 h
[1]; 1% Ultroser G, culture time 4-8 days, 1 μg/ml
  PGs released in the culture medium: 1.74 ± 0.18 μg/μg DNA/96 h
[1]; 1% Ultroser G, culture time 4-8 days, 10 μg/ml
  PGs released in the culture medium: 3.26 ± 0.12 μg/μg DNA/96 h
[1]; 1% Ultroser G, culture time 4-8 days, 100 μg/ml
  PGs released in the culture medium: 3.94 ± 0.1 μg/μg DNA/96 h
[1]; 1% Ultroser G, culture time 8-12 days, 1 μg/ml
  PGs released in the culture medium: 0.44 ± 0.04 μg/μg DNA/96 h
[1]; 1% Ultroser G, culture time 8-12 days, 10 μg/ml
  PGs released in the culture medium: 0.74 ± 0.18 μg/μg DNA/96 h
[1]; 1% Ultroser G, culture time 8-12 days, 100 μg/ml
  PGs released in the culture medium: 0.78 ± 0.02 μg/μg DNA/96 h
[1]; 1% Ultroser G, cumulative, 1 μg/ml
  Proteoglycans released during the 12 days of culture, Abs: 16.4 μg/μg DNA/12 days
[1]; 1% Ultroser G, cumulative, 10 μg/ml
  Proteoglycans released during the 12 days of culture, Abs: 26.4 μg/μg DNA/12 days
[1]; 1% Ultroser G, cumulative, 100 μg/ml
  Proteoglycans released during the 12 days of culture, Abs: 33.3 μg/μg DNA/12 days
[1]; 1% Ultroser G, three concentrations studied
  Concentrations of PG in the clusters, effect in words: significantly stimulated and in a dose-dependent way
[1]; Homo sapiens, Chondrocyte, 288 h, 1% Ultroser G, cumulative, 1 μg/ml, control = 100, read-out: Proteoglycans released during the 12 days of culture, %
  activity at 1 µg/mL: 103%
[1]; Homo sapiens, Chondrocyte, 288 h, 1% Ultroser G, cumulative, 10 μg/ml, control = 100, read-out: Proteoglycans released during the 12 days of culture, %
  activity at 10 µg/mL: 165%
[1]; Homo sapiens, Chondrocyte, 288 h, 1% Ultroser G, cumulative, 100 μg/ml, control = 100, read-out: Proteoglycans released during the 12 days of culture, %
  activity at 100 µg/mL: 208%
[1]; Homo sapiens, Chondrocyte, foetal calf serum, Table 14, 0-4 days, 10 μg/ml, control = 100%, read-out: PG in the culture medium, % of control
  activity at 10 µg/mL: 118%
[1]; Homo sapiens, Chondrocyte, foetal calf serum, Table 14, 0-4 days, 100 μg/ml, control = 100%, read-out: PG in the culture medium, % of control
  activity at 100 µg/mL: 147%
[1]; Homo sapiens, Chondrocyte, foetal calf serum, Table 14, 4-8 days, 10 μg/ml, control = 100%, read-out: PG in the culture medium, % of control
  activity at 10 µg/mL: 119%
[1]; Homo sapiens, Chondrocyte, foetal calf serum, Table 14, 4-8 days, 100 μg/ml, control = 100%, read-out: PG in the culture medium, % of control
  activity at 100 µg/mL: 135%
[1]; Homo sapiens, Chondrocyte, foetal calf serum, Table 15, 0-4 days, 10 μg/ml, control = 100%, read-out: PG in the culture medium, % of control
  activity at 10 µg/mL: 131%
[1]; Homo sapiens, Chondrocyte, foetal calf serum, Table 15, 0-4 days, 100 μg/ml, control = 100%, read-out: PG in the culture medium, % of control
  activity at 100 µg/mL: 166%
[1]; Homo sapiens, Chondrocyte, foetal calf serum, Table 15, 4-8 days, 10 μg/ml, control = 100%, read-out: PG in the culture medium, % of control
  activity at 10 µg/mL: 123%
[1]; Homo sapiens, Chondrocyte, foetal calf serum, Table 15, 4-8 days, 100 μg/ml, control = 100%, read-out: PG in the culture medium, % of control
  activity at 100 µg/mL: 138%
[1]; Homo sapiens, Chondrocyte, foetal calf serum, Table 16, 0-8 days, 10 μg/ml, control = 100%, read-out: PG in the clusters over 8 days, % of control
  activity at 10 µg/mL: 128%
[1]; Homo sapiens, Chondrocyte, foetal calf serum, Table 16, 0-8 days, 100 μg/ml, control = 100%, read-out: PG in the clusters over 8 days, % of control
  activity at 100 µg/mL: 158%
[1]; Homo sapiens, Chondrocyte, foetal calf serum, Table 17, 0-8 days, 10 μg/ml, control = 100%, read-out: PG in the clusters over 8 days, % of control
  activity at 10 µg/mL: 120%
[1]; Homo sapiens, Chondrocyte, foetal calf serum, Table 17, 0-8 days, 100 μg/ml, control = 100%, read-out: PG in the clusters over 8 days, % of control
  activity at 100 µg/mL: 144%
[1]; foetal calf serum, 10 and 100 μg/ml
  PGs in the clusters, effect in words: significantly increased
[1]; foetal calf serum, Table 14, 0-4 days, 10 μg/ml
  PG in the culture medium: 7.7 ± 0.49 μg/μg DNA - 96 H
[1]; foetal calf serum, Table 14, 0-4 days, 100 μg/ml
  PG in the culture medium: 9.5 ± 1.34 μg/μg DNA - 96 H
[1]; foetal calf serum, Table 14, 4-8 days, 10 μg/ml
  PG in the culture medium: 2.37 ± 0.17 μg/μg DNA - 96 H
[1]; foetal calf serum, Table 14, 4-8 days, 100 μg/ml
  PG in the culture medium: 2.69 ± 0.15 μg/μg DNA - 96 H
[1]; foetal calf serum, Table 15, 0-4 days, 10 μg/ml
  PG in the culture medium: 6.9 ± 0.99 μg/μg DNA - 96 H
[1]; foetal calf serum, Table 15, 0-4 days, 100 μg/ml
  PG in the culture medium: 8.8 ± 1.49 μg/μg DNA - 96 H
[1]; foetal calf serum, Table 15, 4-8 days, 10 μg/ml
  PG in the culture medium: 2.1 ± 0.21 μg/μg DNA - 96 H
[1]; foetal calf serum, Table 15, 4-8 days, 100 μg/ml
  PG in the culture medium: 2.4 ± 0.09 μg/μg DNA - 96 H
[1]; foetal calf serum, Table 16, 0-8 days, 10 μg/ml
  PG in the clusters over 8 days: 1004 ± 56 ng/μg DNA
[1]; foetal calf serum, Table 16, 0-8 days, 100 μg/ml
  PG in the clusters over 8 days: 1242 ± 208 ng/μg DNA
[1]; foetal calf serum, Table 17, 0-8 days, 10 μg/ml
  PG in the clusters over 8 days: 688.8 ± 40.65 ng/μg DNA
[1]; foetal calf serum, Table 17, 0-8 days, 100 μg/ml
  PG in the clusters over 8 days: 829.4 ± 9.37 ng/μg DNA
[2]; 10^-3 M
  % inhibition of the production of hydroxyl radicals: 78%
[2]; 10^-4 M
  % inhibition of the production of hydroxyl radicals: 41%
[2]; 10^-5 M
  % inhibition of the production of hydroxyl radicals: 22%
[2]; Table 22
  Production of free radicals from KMB, effect in words: significantly inhibits
